# Test results as given in ChEMBL document CHEMBL6127117, “Divergent Total Synthesis of Isoflavone Natural Products and Their Potential as Therapeutic Agents for TTR Amyloidosis” (J Nat Prod, 2024).
# The source made the active and inactive calls. The calls are words filed in the database; no cut-off is given here.
# Legend:
# [1] = tested on: Transthyretin (Homo sapiens), P02766 [V50M]; assay: Inhibition of acid mediated TTR V30M mutant (unknown origin) aggregation under pH 4.7 at 20 uM measured upto 6 days by thioflavin-T fluorescence assay; settings: time <= 6.0 day
# [2] = molecular target: Transthyretin (Homo sapiens) (UniProt P02766); assay: Binding affinity to TTR in human plasma assessed as stabilization of TTR tetramer by measuring fluorescence intensity measured after 6 hrs by absorbance based analysis; format: cell-free; settings: dose 20-100 µM
# [3] = molecular target: Transthyretin (Homo sapiens) (UniProt P02766); assay: Binding affinity to TTR in human plasma assessed as stabilization of TTR tetramer by measuring fluorescence intensity at 100 uM measured after 6 hrs by absorbance based analysis relative to control; format: cell-free
# [4] = molecular target: Transthyretin (Homo sapiens) (UniProt P02766); assay: Binding affinity to TTR in human plasma assessed as stabilization of TTR tetramer by measuring fluorescence intensity at 50 uM measured after 6 hrs by absorbance based analysis relative to control; format: cell-free
# [5] = molecular target: Transthyretin (Homo sapiens) (UniProt P02766); assay: Binding affinity to TTR in human plasma assessed as stabilization of TTR tetramer by measuring fluorescence intensity at 20 uM measured after 6 hrs by absorbance based analysis relative to control; format: cell-free
Structure (SMILES),inhibition [1],Activity [2],Activity [3] [%],Activity [4] [%],Activity [5] [%]
C=CC(C)(C)c1cc(-c2coc3cc4c(c(O)c3c2=O)C=CC(C)(C)O4)ccc1O,inactive,Dose-Dependent Effect,,,
CC(C)=CCc1c2c(c(O)c3c(=O)c(-c4ccc(O)c(O)c4)coc13)C=CC(C)(C)O2,Active,Dose-Dependent Effect,,,
CC(C)=CCc1c2c(c3occ(-c4ccc(O)cc4O)c(=O)c3c1O)C=CC(C)(C)O2,Active,Dose-Dependent Effect,35,50,70
CC1(C)C=Cc2c(cc3occ(-c4ccc(O)cc4)c(=O)c3c2O)O1,Active,Dose-Dependent Effect,,,
CC(C)=CCc1cc(-c2coc3cc4c(c(O)c3c2=O)C=CC(C)(C)O4)ccc1O,inactive,Dose-Dependent Effect,,,

# Results, then the molecule that gave them:
inhibition [1],Activity [2],Activity [3] [%],Activity [4] [%],Activity [5] [%],Structure (SMILES)
inactive,Dose-Dependent Effect,,,,CC(C)=CCc1cc(-c2coc3c4c(cc(O)c3c2=O)OC(C)(C)C=C4)ccc1O
inactive,Dose-Dependent Effect,,,,CC(C)=CCOc1ccc(-c2coc3cc4c(c(O)c3c2=O)C=CC(C)(C)O4)cc1
Active,Dose-Dependent Effect,,,,CC1(C)C=Cc2c(cc(O)c3c(=O)c(-c4ccc(O)cc4)coc23)O1
inactive,Dose-Dependent Effect,,,,CC(C)=CCOc1ccc(-c2coc3c4c(cc(O)c3c2=O)OC(C)(C)C=C4)cc1
